Results from patent publication US10791740B2, “Enhancement of antibiotic efficacy” (priority 2014, dated 2020).
In brackets after ≈: the same amount, converted by molar mass. Read-outs that look alike come from different tables or passages of the source.

What was measured:
[1] = tested on: tetracycline resistant E. coli; type: cell-based, Escherichia coli; settings: for MIC: single agent, Table 5; for MIC (μM) of amphiphile alone: Tables 6 and 7
Text: (§1) Certain aspects are drawn to a method for increasing or enhancing the antimicrobial activity of an antimicrobial agent. As used herein, the “antimicrobial activity” of an antimicrobial agent is defined as the property of a substance to inhibit the growth and reproduction of a microbial organism or to kill it. Common terms generally applied to bacteria are bacteriostatic (stops growth) and bactericidal (kills bacteria). Depending on the concentrations applied, microbial growth can be slowed or stopped in comparison to concurrent experiments conducted in the absence of an antimicrobial agent. Depending on the concentrations applied, additional microbe death can occur in comparison to concurrent experiments conducted in the absence of an antimicrobial agent. […] The MIC is the lowest concentration of any agent having antimicrobial activity that inhibits the growth of a microorganism as judged by visual inspection. MIC can be determined by inoculating media with the organism and adding the antimicrobial agent diluted successively in half.
(§2) Among the organisms studied are several strains of the bacterium E. coli.
N,N′-Dibenzyl-4,13-diaza-18-crown-6 is referred to in the table as dibenzyldiaza-18-crown-6.
(§3) Minimal Inhibitory Concentration (MIC) Procedure. […] Prepare initial concentration of all the compounds required. • 5. […] Vortex each test tube for 2-3 seconds. • 11.

E. coli [2] = settings: Journal of the American Chemical Society 2002, 124, 9022-3, cited from earlier work
E. coli [3] = assay: MIC determination, E. coli (Table 1); type: cell-based, Escherichia coli; settings: single agent
Text: as §1, §2, §3

K-12 E. coli [4] = assay: MIC of single agents against K-12 E. coli
K-12 E. coli [5] = assay: Combination of amphiphile and antibiotic against K-12 E. coli
DH5α E. coli [6] = assay: Combination of lariat ether and antibiotic against DH5α E. coli; settings: 0.4 vol-% DMSO
[7] = tested on: tetracycline resistant E. coli
B. stubtilis = assay: MIC determination, B. subtilis (Table 1); type: cell-based, Bacillus subtilis; settings: single agent
Text: (§4) Certain aspects are drawn to a method for increasing or enhancing the antimicrobial activity of an antimicrobial agent. As used herein, the “antimicrobial activity” of an antimicrobial agent is defined as the property of a substance to inhibit the growth and reproduction of a microbial organism or to kill it. Common terms generally applied to bacteria are bacteriostatic (stops growth) and bactericidal (kills bacteria). Depending on the concentrations applied, microbial growth can be slowed or stopped in comparison to concurrent experiments conducted in the absence of an antimicrobial agent. Depending on the concentrations applied, additional microbe death can occur in comparison to concurrent experiments conducted in the absence of an antimicrobial agent. The results of minimum inhibitory concentration (MIC) evaluations and growth curves are presented herein and the conditions are specified. The MIC is the lowest concentration of any agent having antimicrobial activity that inhibits the growth of a microorganism as judged by visual inspection. MIC can be determined by inoculating media with the organism and adding the antimicrobial agent diluted successively in half. […] Reference herein to increasing or enhancing activity, efficacy, potency, and the like are used interchangeably to mean that when the synthetic amphiphile is present, the ability of the antimicrobial agent to inhibit the growth of or to kill an organism will be manifested at a concentration lower than would be required to achieve the same results in the absence of said synthetic amphiphile.
(§5) Among the organisms studied are several strains of the bacterium E. coli. […] Experiments were conducted to determine the MIC values for the synthetic amphiphiles known as lariat ethers according to the procedures described in Antimicrobial M07-A9: Methods for Dilution Antimicrobial Susceptibility Tests for Bacteria that Grow Aerobically; Clinical and Laboratory Standards Institute, 2012; Vol. 32, 67 pp. MIC values so determined for several lariat ethers and for several antibiotics are shown in Table 1.

S. cerevisiae = assay: MIC determination, S. cerevisiae (Table 1); type: cell-based, Saccharomyces cerevisiae; settings: single agent
Text: as §4, §5

DH5α E. coli [8] = assay: MIC of single agents against DH5α E. coli; type: cell-based, Escherichia coli; settings: previous studies
Text: as §1, §2, §3

DH5α E. coli [9] = assay: Inhibitory concentration (IC50) to DH5α E. coli cells (FIG. 4); type: cell-based, Escherichia coli; settings: at 180 μM
Text: Two commonly used abbreviations are LD50 and IC50. The former is the concentration of an agent that comprises a lethal dose to 50% of the organism under study. The latter is the concentration of agent that inhibits growth of 50% of the organism under study. […] The abscissa represents the number of (CH2) groups in spacer chains. The ordinate is logarithmic and reflects the concentrations (in μM) of the various lariat ethers used.

c1ccc(CN2CCOCCOCCN(CCCCCCCCCCCCN3CCOCCOCCN(CCCCCCCCCCCCN4CCOCCOCCN(Cc5ccccc5)CCOCCOCC4)CCOCCOCC3)CCOCCOCC2)cc1 [C12 hydraphile]
MIC [1]: 5 ± 0.5 µM (≈ 6.5 µg/mL)
MIC (μM) of amphiphile alone ([1]; tetracycline resistant E. coli): 5 µM
toxicity to E. coli (E. coli [2]; listed as C12 benzyl hydraphile): killed E. coli
toxicity to E. coli (E. coli [2]; listed as benzyl C12 hydraphile): killed the bacteria

c1ccc(CN2CCOCCOCCN(CCCCCCCCCCCCCCN3CCOCCOCCN(CCCCCCCCCCCCCCN4CCOCCOCCN(Cc5ccccc5)CCOCCOCC4)CCOCCOCC3)CCOCCOCC2)cc1 [C14 hydraphile]
MIC [1]: 2 ± 0.125 µM (≈ 2.71 µg/mL)
MIC (μM) of amphiphile alone ([1]; tetracycline resistant E. coli): 2 µM

CC[C@H]1OC(=O)[C@H](C)[C@@H](O[C@H]2C[C@@](C)(OC)[C@@H](O)[C@H](C)O2)[C@H](C)[C@@H](O[C@@H]2O[C@H](C)C[C@H](N(C)C)[C@H]2O)[C@](C)(O)C[C@@H](C)C(=O)[C@H](C)[C@@H](O)[C@]1(C)O [erythromycin, reference compound]
MIC (E. coli [3]; Escherichia coli): > 400 µM

CO[C@H]1/C=C/O[C@@]2(C)Oc3c(C)c(O)c4c(O)c(c(/C=N/N5CCN(C)CC5)c(O)c4c3C2=O)NC(=O)/C(C)=C\C=C\[C@H](C)[C@H](O)[C@@H](C)[C@@H](O)[C@@H](C)[C@H](OC(C)=O)[C@@H]1C [rifampicin, reference compound]
MIC (μM) of antibiotic alone (K-12 E. coli [4]): 20 µM
Antibiotic Used (μM) in combination (K-12 E. coli [5]; Rifampicin with 6 μM C11 lariat ether): 10 µM
Antibiotic Used (μM) in combination (DH5α E. coli [6]; rifampicin with 8 μM n-C11 lariat ether): 15 µM
Antibiotic Used (μM) in combination (DH5α E. coli [6]; rifampicin with 12 μM n-C11 lariat ether): 6 µM
Antibiotic Used (μM) in combination (DH5α E. coli [6]; rifampicin with 16 μM n-C11 lariat ether): 6 µM
Antibiotic Used (μM) in combination (DH5α E. coli [6]; rifampicin with 18 μM n-C11 lariat ether): 3 µM

CN(C)[C@@H]1C(O)=C(C(N)=O)C(=O)[C@@]2(O)C(O)=C3C(=O)c4c(O)cccc4[C@@](C)(O)[C@H]3C[C@@H]12 [tetracycline, reference compound]
MIC (μM) of antibiotic alone ([1]; tetracycline resistant E. coli): ~900 µM
Antibiotic Used (μM) in combination ([7]; Tetracycline with 8 μM C11 lariat ether): 175 µM
Antibiotic Used (μM) in combination ([7]; Tetracycline with 12 μM C11 lariat ether): 87 µM
Antibiotic Used (μM) in combination ([7]; Tetracycline with 16 μM C11 lariat ether): 87 µM
Antibiotic Used (μM) in combination ([7]; Tetracycline with 18 μM C11 lariat ether): 87 µM
MIC (μM) of antibiotic alone (K-12 E. coli [4]): 6 µM
Antibiotic Used (μM) in combination (K-12 E. coli [5]; Tetracycline with 6 μM C11 lariat ether): 2.5 µM
Antibiotic Used (μM) in combination (DH5α E. coli [6]; tetracycline with 4 μM n-C11 lariat ether): 3 µM
Antibiotic Used (μM) in combination (DH5α E. coli [6]; tetracycline with 12 μM n-C11 lariat ether): 1 µM
Antibiotic Used (μM) in combination (DH5α E. coli [6]; tetracycline with 16 μM n-C11 lariat ether): 0.25 µM
Antibiotic Used (μM) in combination (DH5α E. coli [6]; tetracycline with 18 μM n-C11 lariat ether): 1.5 µM

NC[C@H]1O[C@H](O[C@H]2[C@H](O)[C@@H](O[C@H]3O[C@H](CO)[C@@H](O)[C@H](N)[C@H]3O)[C@H](N)C[C@@H]2N)[C@H](N)C[C@@H]1O [tobramycin, reference compound]
MIC (E. coli [3]; Escherichia coli): 15 µM (≈ 7.01 µg/mL)

N,N′-di-n-dodecyl-4,13-diaza-18-crown-6 [C12 lariat ether]
MIC (E. coli [3]): >300 µM
MIC (μM) B. stubtilis (B. stubtilis): 2.5 µM
MIC (μM) S. cerevisiae (S. cerevisiae): 2.5 µM
toxicity to DH5α E. coli cells (DH5α E. coli [8]): did not show toxicity
MIC (μM) of amphiphile alone ([1]; tetracycline resistant E. coli): >512 µM
MIC (μM) of amphiphile alone (K-12 E. coli [4]): >512 µM

N,N′-di-n-tetradecyl-4,13-diaza-18-crown-6 [C14 lariat ether]
MIC (E. coli [3]): >300 µM
MIC (μM) B. stubtilis (B. stubtilis): >300 µM
MIC (μM) S. cerevisiae (S. cerevisiae): >300 µM
activity against E. coli (DH5α E. coli [9]): inactive
